System: CHO cells expressing a trap protein (receptor-Fc fusion protein, VEGF-trap)
Details: 36.6 mg/L putrescine; VEGF-trap from CHO cells

NCCCCN [putrescine, 1,4-Diaminobutane]
Al N-Glycan relative amount (% area under the curve): 9.0 % area under the curve

Reference: US20190010531A1, “CELL CULTURE PROCESS FOR MAKING A GLYCOPROTEIN” (Regeneron Pharmaceuticals, Inc., priority 2017, published 2019)
